# Source: US7595401B2, “Therapeutic compounds and their use in cancer” (Myriad Pharmaceuticals, Inc., priority 2006, dated 2009)
# pIC50: −log10 of the molar value.
# Test system: purified human Hsp90
# Test: Binding Assay: fluorescence polarization with BODIPY-labeled geldanamycin
# Conditions: 5 μM compound, BODIPY-GM 10 nM, Hsp90 30 nM
# Description: Compound binding to purified Hsp90 was monitored using BODIPY-labeled geldanamycin (BODIPY-GM) in a fluorescence polarization assay adapted from Kim et al. (Journal of Biomolecular Screening 2004, 9(5):375-381). Compound dilutions (in 100% DMSO) were added to black-bottom 96-well plates (Greiner; 2% DMSO final), and equal volumes of BODIPY-GM (10 nM final) and purified human Hsp90 (Stressgen, SPP-770; 30 nM final) in assay buffer (20 mM HEPES-KOH pH 7.3, 50 mM KCl, 5 mM MgCl2, 20 mM Na2MoO4, 0.01% NP-40, 0.1 mg/mL bovine gamma globulin [Invitrogen, P2045], 2 mM DTT) were added sequentially to yield a final volume of 50 microliters. Plates were incubated overnight at room temperature. Parallel and perpendicular fluorescence measurements were read (LJL BioSystems Analyst AD plate reader) with excitation/emission wavelengths of 485/530 nm. Background fluorescence (buffer only) was subtracted, and fluorescence polarization (FP) values, expressed in mP units, were calculated from parallel and perpendicular fluorescence readings as follows: FP=(parallel−perpendicular)/(parallel+perpendicular)*1000
# Percent inhibition was calculated by normalizing the FP values to those obtained in parallel reactions containing DMSO and subtracting these normalized values from 100%. Intrinsic compound fluorescence was independently monitored, and FP data points confounded by compound fluorescence were excluded from the analysis.
row,% Inhibition at 5 μM Compound Concentration,SMILES
1,0%,"COc1ccc(OC)c(Sc2nc3c(N)ncn(CCc4ccc(Cl)cc4Cl)c-3n2)c1 [Example 28, 3-[2-(2,4-dichloro-phenyl)-ethyl]-8-(2,5-dimethoxy-phenyl-sulfanyl)-3H-purin-6-ylamine]"
2,16%,"COc1ccc(OC)c(Sc2nc3c(N)ncn(CCc4ccccc4F)c-3n2)c1 [Example 30, 8-(2,5-dimethoxy-phenylsulfanyl)-3-[2-(2-fluoro-phenyl)-ethyl]-3H-purin-6-ylamine]"
3,55%,"Nc1ncnc2c1nc(Sc1ccc3c(c1)OCO3)n2CCn1cccc1 [Example 49, 8-(Benzo[1,3]dioxol-5-ylsulfanyl)-9-(2-pyrrol-1-yl-ethyl)-9H-purin-6-ylamine]"
4,3%,"Nc1ncn(CCn2cccc2)c2nc(Sc3ccc4c(c3)OCO4)nc1-2 [Example 50, 8-(benzo[1,3]dioxol-5-ylsulfanyl)-3-(2-pyrrol-1-yl-ethyl)-3H-purin-6-ylamine]"
5,52%,"Nc1ncnc2c1nc(Sc1ccc3c(c1)OCO3)n2CCCn1cccc1 [Example 51, 8-(Benzo[1,3]dioxol-5-ylsulfanyl)-9-(3-pyrrol-1-yl-propyl)-9H-purin-6-ylamine]"
6,0%,"Nc1ncn(CCCn2cccc2)c2nc(Sc3ccc4c(c3)OCO4)nc1-2 [Example 52, 8-(benzo[1,3]dioxol-5-ylsulfanyl)-3-(3-pyrrol-1-yl-propyl)-3H-purin-6-ylamine]"
7,13%,"Nc1ncn(CCc2ccccc2Cl)c2nc(Sc3cc4c(cc3Br)OCO4)nc1-2 [Example 54, 8-(6-bromo-benzo[1,3]dioxol-5-ylsulfanyl)-3-[2-(2-chloro-phenyl)-ethyl]-3H-purin-6-ylamine]"
8,3%,"COc1ccc(OC)c(Sc2nc3c(N)ncn(CCc4c(C)cc(C)cc4C)c-3n2)c1 [Example 56, 8-(2,5-dimethoxy-phenylsulfanyl)-3-[2-(2,4,6-trimethyl-phenyl)-ethyl]-3H-purin-6-ylamine]"

# Same assay, conditions: BODIPY-GM 10 nM, Hsp90 30 nM
row,pIC50,SMILES
1,6.82,"COc1ccc(OC)c(Sc2nc3c(N)ncnc3n2CCc2ccccc2F)c1 [Example 29, 8-(2,5-Dimethoxy-phenylsulfanyl)-9-[2-(2-fluoro-phenyl)-ethyl]-9H-purin-6-ylamine]"
2,< 5.00,"COc1ccc(OC)c(Sc2nc3c(N)ncn(CCc4ccccc4F)c-3n2)c1 [Example 30, 8-(2,5-dimethoxy-phenylsulfanyl)-3-[2-(2-fluoro-phenyl)-ethyl]-3H-purin-6-ylamine]"
3,< 5.00,"COc1cc(Sc2nc3c(N)ncnc3n2CCc2ccc(Cl)cc2)cc(OC)c1OC [Example 31, 9-[2-(4-Chloro-phenyl)-ethyl]-8-(3,4,5-trimethoxy-phenylsulfanyl)-9H-purin-6-ylamine]"
4,< 5.00,"COc1cc(Sc2nc3c(N)ncn(CCc4ccc(Cl)cc4)c-3n2)cc(OC)c1OC [Example 32, 3-[2-(4-chloro-phenyl)-ethyl]-8-(3,4,5-trimethoxy-phenylsulfanyl)-3H-purin-6-ylamine]"
5,7.77,"Nc1ncnc2c1nc(Sc1cc3c(cc1I)OCO3)n2CCc1ccccc1 [Example 33, 8-(-6-Iodo-benzo[1,3]dioxol-5-ylsulfanyl)-9-phenethyl-9H-purin-6-ylamine]"
6,< 5.00,"Nc1ncn(CCc2ccccc2)c2nc(Sc3cc4c(cc3I)OCO4)nc1-2 [Example 34, 8-(6-iodo-benzo[1,3]dioxol-5-ylsulfanyl)-3-phenethyl-3H-purin-6-ylamine]"
7,6.10,"COc1cccc(CCn2c(Sc3cc(OC)ccc3OC)nc3c(N)ncnc32)c1 [Example 35, 8-(2,5-Dimethoxy-phenylsulfanyl)-9-[2-(3-methoxy-phenyl)-ethyl]-9H-purin-6-ylamine]"
8,< 5.30,"COc1cccc(CCn2cnc(N)c3nc(Sc4cc(OC)ccc4OC)nc2-3)c1 [Example 36, 8-(2,5-dimethoxy-phenylsulfanyl)-3-[2-(3-methoxy-phenyl)-ethyl]-3H-purin-6-ylamine]"
9,6.10,"COc1ccc(OC)c(Sc2nc3c(N)ncnc3n2CCc2cccc(F)c2)c1 [Example 37, 8-(2,5-Dimethoxy-phenylsulfanyl)-9-[2-(3-fluoro-phenyl)-ethyl]-9H-purin-6-ylamine]"
10,< 5.00,"COc1ccc(OC)c(Sc2nc3c(N)ncn(CCc4cccc(F)c4)c-3n2)c1 [Example 38, 8-(2,5-dimethoxy-phenylsulfanyl)-3-[2-(3-fluoro-phenyl)-ethyl]-3H-purin-6-ylamine]"
11,6.64,"Nc1ncnc2c1nc(Sc1cc3c(cc1Br)OCO3)n2CCc1ccc(Cl)cc1F [Example 39, 8-(6-Bromo-benzo[1,3]dioxol-5-ylsulfanyl)-9-[2-(4-chloro-2-fluorophenyl)-ethyl]-9H-purin-6-ylamine]"
12,< 5.00,"Nc1ncn(CCc2ccc(Cl)cc2F)c2nc(Sc3cc4c(cc3Br)OCO4)nc1-2 [Example 40, 8-(6-bromo-benzo[1,3]dioxol-5-ylsulfanyl)-3-[2-(4-chloro-2-fluoro-phenyl)-ethyl]-3H-purin-6-ylamine]"
13,6.30,"Nc1ncnc2c1nc(Sc1cc3c(cc1Br)OCO3)n2CCc1c(F)c(F)c(F)c(F)c1F [Example 41, 8-(6-Bromo-benzo[1,3]dioxol-5-ylsulfanyl)-9-(2-pentafluorophenyl-ethyl)-9H-purin-6-ylamine]"
14,< 5.30,"Nc1ncn(CCc2c(F)c(F)c(F)c(F)c2F)c2nc(Sc3cc4c(cc3Br)OCO4)nc1-2 [Example 42, 8-(6-bromo-benzo[1,3]dioxol-5-ylsulfanyl)-3-(2-pentafluorophenyl-ethyl)-3H-purin-6-ylamine]"
15,6.15,"Nc1ncnc2c1nc(Sc1cc3c(cc1Br)OCO3)n2CCCc1ccccc1 [Example 43, 8-(6-Bromo-benzo[1,3]dioxol-5-ylsulfanyl)-9-(3-phenyl-propyl)-9H-purin-6-ylamine]"
16,4.57,"Nc1ncn(CCCc2ccccc2)c2nc(Sc3cc4c(cc3Br)OCO4)nc1-2 [Example 44, 8-(6-bromo-benzo[1,3]dioxol-5-ylsulfanyl)-3-(3-phenyl-propyl)-3H-purin-6-ylamine]"
17,5.09,"COc1cc(Sc2nc3c(N)ncnc3n2CCc2ccccc2)cc(OC)c1OC [Example 45, 9-Phenethyl-8-(3,4,5-trimethoxy-phensulfanyl)-9H-purin-6-ylamine]"
18,< 5.00,"COc1cc(Sc2nc3c(N)ncn(CCc4ccccc4)c-3n2)cc(OC)c1OC [Example 46, 3-phenethyl-8-(3,4,5-trimethoxy-phenylsulfanyl)-3H-purin-6-ylamine]"
19,< 5.00,"COc1cc(Sc2nc3c(N)ncnc3n2CCCc2ccccc2)cc(OC)c1OC [Example 47, 9-(3-Phenyl-propyl)-8-(3,4,5-trimethoxy-phenylsulfanyl)-9H-purin-6-ylamine]"
20,< 5.00,"COc1cc(Sc2nc3c(N)ncn(CCCc4ccccc4)c-3n2)cc(OC)c1OC [Example 48, 3-(3-phenyl-propyl)-8-(3,4,5-trimethoxy-phenylsulfanyl)-3H-purin-6-ylamine]"
21,5.92,"Nc1ncnc2c1nc(Sc1ccc3c(c1)OCO3)n2CCn1cccc1 [Example 49, 8-(Benzo[1,3]dioxol-5-ylsulfanyl)-9-(2-pyrrol-1-yl-ethyl)-9H-purin-6-ylamine]"
22,5.82,"Nc1ncnc2c1nc(Sc1ccc3c(c1)OCO3)n2CCCn1cccc1 [Example 51, 8-(Benzo[1,3]dioxol-5-ylsulfanyl)-9-(3-pyrrol-1-yl-propyl)-9H-purin-6-ylamine]"
23,7.35,"Nc1ncnc2c1nc(Sc1cc3c(cc1Br)OCO3)n2CCc1ccccc1Cl [Example 53, 8-(6-Bromo-benzo[1,3]dioxol-5-ylsulfanyl)-9-[2-(2-chloro-phenyl)-ethyl]-9H-purin-6-ylamine]"
24,5.77,"COc1ccc(OC)c(Sc2nc3c(N)ncnc3n2CCc2c(C)cc(C)cc2C)c1 [Example 55, 8-(2,5-Dimethoxy-phenylsulfanyl)-9-[2-(2,4,6-trimethyl-phenyl)-ethyl]-9H-purin-6-ylamine]"
